Reference: patent US11154853B2, “Generation of data for use with antimicrobials” (GeneFluidics, Inc., priority 2017, dated 2021)
Read-outs that look alike come from different tables or passages of the source.

Tested on: E. coli
Experimental: Susceptibility cultures can be started.
(§1) Then, the Proteus automated system can add 12 μL of 1M NaOH to the 30 μL sample. […] The Proteus system can then add 8 μL of 1M HCl. Ten microliters of the result can be placed on each of 4 sensors of the 16 available on the GeneFluidics, Inc. 16X EC chip. This chip can be incubated in the Proteus machine for 11 minutes at 43° C. After completion of this incubation, the chip can be washed and dried by Proteus. Ten microliters of 0.5 U/mL anti-fluorescein horseradish peroxidase (HRP) Fab fragments (Roche; diluted in 1.0% casein in […] phosphate-buffered saline, pH 7.4) can be injected into the sensor chambers and incubated for 2 minutes at 25° C.
as §1
For instance, a Helios potentiostat from GeneFluidics, Inc. was connected to the electrodes of the sensor chips and a potential of −250 mV was applied across the electrodes for one minute. During this time, the current generated by the electrochemical reaction was measured by the potentiostat. The average current measured in the final 10 seconds of the potentiostat reading constituted the final result of the assay.

SMILES: O=C(O)c1cn(C2CC2)c2cc(N3CCNCC3)c(F)cc2c1=O [ciprofloxacin]
- average current signal of the four sensors (base susceptibility test) (0 minute susceptibility culture time, 0.4 μg antibiotic in 100 μL Mueller-Hinton broth, 5×10^5 CFU/mL): 30 nA
- increase over the current level from base susceptibility test (60 minute susceptibility culture time): 0%
- current of processed sample (60 minute susceptibility culture time, 0.4 μg antibiotic in 100 μL Mueller-Hinton broth): 30 nA
- increase over the current level from base susceptibility test (90 minute susceptibility culture time): 0%
- reported result (resistant / susceptible) (E. coli from patient urine sample, at the concentration of antibiotic in the culture): susceptible
